Reference: article PMC6470784, “Effect of Stereochemical Configuration on the Transport and Metabolism of Catechins from Green Tea across Caco-2 Monolayers” (Molecules, 2019)
Where a name gives a salt, the structure may show the parent alone. Read-outs that look alike come from different tables or passages of the source.

What was measured:
MRP2 [1] = test: MRP2 protein level in Caco-2 cells (Western blot); format: cell-based, human; details: 300 μmol/L, 2 h
Method: After being washed by precooled PBS buffer three times, the total lysate was prepared on ice from 5 to 8 × 10^6 cells by lysis in a 150 μL Radio Immunoprecipitation Assay (RIPA) Lysis buffer containing 1% (v/v) Phenylmethanesulfonyl fluoride (PMSF) (Beyotime, Shanghai, China). The lysates were centrifuged at 13,000 rpm for 20 min at 4 °C, after mixing uniformity. The protein-containing supernatant was collected and the protein content was determined using the Bio-Rad protein assay. Western blotting was performed according to standard techniques, as previously described. In each lane of a Bio-Rad minigel system, 10 μg of protein was loaded. For the detection of BCRP, P-glycoprotein (MDR1), and MRP2, the following polyclonal antibodies were used: rabbit anti-BCRP (1:1000), rabbit anti-P-glycoprotein (1:1000), and rabbit anti-MRP2 (1:600). Horseradish peroxidase (HRP)-conjugated goat anti-rabbit (1:3000) were used as the secondary antibodies. As a loading control, the expression of β-actin was determined using an antibody against β-actin (1:40,000). Enhanced chemiluminescence (ECL) solutions were used for chemiluminescence.

P-glycoprotein = test system: P-glycoprotein; parameters: method as in PMID 15285844; details: KB-C2 cells; cited from earlier work
in vitro = details: human; for Papp A→B at 300 μmol/L / Papp B→A at 300 μmol/L / Papp at 300 μmol/L: Caco-2, pH 6; for efflux ratio: Caco-2, pH 6, Efflux ratio in the absence of MK571
Method: (§1) For the transport experiments, the cells were seeded in 24-mm i.d Transwell® inserts (polycarbonate membrane, 0.4 μM pore size, Corning Costar Co., (Corning, NY, USA) in six-well plates at a density of 4 × 10^5 cells/well, and were cultured for 21 days prior to the transport experiments. To monitor the integrity of the cell layers, transepithelial electrical resistance (TEER) values were measured using a Millicell-ERS Voltohmmeter (Millipore Corp, Bedford, MA, USA). TEER values above 513.7 Ω·cm^2 in the culture medium were selected for the transport experiment.
(§2) For the transport of GTCs across the Caco-2 monolayers, the inserts were gently washed twice and were equilibrated at 37 °C for 30 min with 0.01 M modified phosphate buffer saline (PBS+), which was supplemented with 0.45 M calcium chloride and 0.4 M potassium chloride, and adjusted to pH 6.0 [7]. In the transepithelial transport, GTCs at different concentrations in PBS+ (DMSO less than 0.5%) were loaded into the apical (AP) or basolateral (BL) side, the so-called donor side. The plate was then incubated at 37 °C. At designated time intervals, aliquots of 0.5 mL of sample were taken from the other side, the so-called receiver side, and then replaced with an equal volume of PBS+. After that, the samples were dried with a CoolSafe freeze dryer (LaboGene ApS, Bjarkesvej, Denmark) at −110 °C, and stored at −20 °C until analysis.
(§3) For the inhibition of transport, MK571 was used at a concentration of 93.11 μmol/L (50 μg/mL with a DMSO less than 0.3%). The cells were preincubated with the inhibitor for 30 min. Then, the bi-directional transport studies of the GTCs in the presence of MK-571 at both the donor and receiver side were performed as for the transport method described above.
(§4) The transport samples were analyzed by an Agilent LC 1260 system (Agilent Technologies, CA, USA) after redissolving with 50 μL methyl into vial inserts (100 uL; Agilent Technologies, CA, USA). The separation was performed on an Octadecylsilyl (ODS) reversed-phase column (4.6 mm i.d. × 250 mm, 4.5 μm; TC-C18, Agilent Technologies) using a diode array detector (DAD) at 278 nm. The mobile phase consisted of 15% methanol and 0.1% formic acid at a flow-rate of 0.8 mL/min.
(§5) The values were expressed as the mean ± standard deviation (SD) of three replications. The statistical significances of the difference between the various groups were analyzed using the Fisher’s least significant difference (LSD) procedure. For comparison between the two groups, the Student’s t-test was used. The differences were considered to be significant when p < 0.05.

MRP2 [2] = test: MRP2 mRNA level in Caco-2 cells (qRT-PCR); format: cell-based, human; details: 300 μmol/L, 2 h
Method: The Caco-2 cells were seeded in six-well plates (Corning Costar Co., NY, USA) at a density of 4 × 10^4 cells/cm^2, and were cultured for 21 days. After incubation with each tea catechins (300 μmol/L in full culture medium) for 2 h or 24 h, the total RNA from the Caco-2 cells were isolated with a Total RNA Kit (Aidlab, Beijing, China). First-strand cDNA was synthesized using a cDNA synthesis Kit (Aidlab, Beijing, China). The gene expression of MRP2 was examined by quantitative real-time PCR with the SYBR Green qPCR Mix (Aidlab, Beijing, China) in an ABI7500 Real-Time System (Applied Biosystems, USA). The reaction was carried out in a 10 μL RT-reaction mixture containing 5 μL 2 × SYBR Green qPCR Mix, 0.2 μL forward and reverse primers (10 μmol/μL), and water to a final volume of 10 μL, and was performed under the following cycling conditions: an initial denaturing step of 10 min at 95 °C, followed by 40 cycles consisting of 5 s at 95 °C and 34 s at 60 °C.
All of the qPCR experiments were repeated in three biologicals. The data were analyzed using the 2-ΔΔCT method. All of the primers were synthesized by Sangon Biotech (Shanghai, China), as previously described, and their sequences are depicted in Table 3.

[3] = parameters: method as in PMID 10909265; details: rats, cited from earlier work
BCRP [4] = test: BCRP mRNA level in Caco-2 cells (qRT-PCR); format: cell-based, human; details: 2 h
Method: All of the qPCR experiments were repeated in three biologicals. The data were analyzed using the 2-ΔΔCT method [39]. All of the primers were synthesized by Sangon Biotech (Shanghai, China), as previously described [40], and their sequences are depicted in Table 3.

[5] = Bidirectional transepithelial transport across Caco-2 monolayers (Papp, efflux ratio), with and without MK571; details: human; for Papp A→B at 300 μmol/L / Papp B→A at 300 μmol/L / Papp at 300 μmol/L: Caco-2, pH 6
Method: as §1, §2, §3, §4, §5

[6] = cited from earlier work
BCRP [7] = test system: BCRP; parameters: method as in PMID 20149610; details: MCF-7 cell line, 100 μg/mL; cited from earlier work
MRP2 [8] = test system: MRP2; parameters: method as in PMID 23146761; details: rats, 24 h; cited from earlier work
Caco-2 cell monolayers = test: Bidirectional transepithelial transport across Caco-2 monolayers (Papp, efflux ratio), with and without MK571; details: Caco-2 monolayers, MK571 93.11 μmol/L
Method: as §1, §2, §3, §4, §5

[9] = Caco-2, pH 6, Efflux ratio in the absence of MK571, Caco-2 monolayers, no MK571
[10] = Caco-2, pH 6, with MK571 93.11 μmol/L (50 μg/mL), Efflux ratio in the presence of MK571, Caco-2 monolayers, MK571 93.11 μmol/L
[11] = rats, intragastric administration

Row | Papp A→B at 300 μmol/L [5] [×10⁻⁶ cm/s] | Papp B→A at 300 μmol/L [5] [×10⁻⁶ cm/s] | efflux ratio [5, 9] | efflux ratio [5, 10] | SMILES | Increase of protein level of MRP2 (MRP2 [1]) [%] | Cellular accumulation of rhodamine-123 and daunorubicin (P-glycoprotein) | Papp A→B at 300 μmol/L (in vitro) [×10⁻⁶ cm/s] | Papp B→A at 300 μmol/L (in vitro) [×10⁻⁶ cm/s] | efflux ratio (in vitro) | Increase of mRNA levels of MRP2 (MRP2 [2]) [%] | BCRP gene expression (BCRP [4]) | other results
1 | – | – | – | – | O=C(O[C@@H]1Cc2c(O)cc(O)cc2O[C@@H]1c1ccc(O)c(O)c1)c1cc(O)c(O)c(O)c1 [ECG, (−)-epicatechin gallate] | 24.67 | increase the cellular accumulation | 0.138 ± 0.009 | 0.387 ± 0.031 | 2.82 | 85.18 | upregulation | Plasma concentration following oral administration ([3]; 650 mg/kg): 33.5 µM
2 | 0.103 ± 0.021 | 0.293 ± 0.013 | 2.84 | 1.24 | O=C(O[C@@H]1Cc2c(O)cc(O)cc2O[C@H]1c1cc(O)c(O)c(O)c1)c1cc(O)c(O)c(O)c1 [GCG, (−)-gallocatechin gallate] | 20.67 | – | – | – | – | 133.15 | upregulation | Papp at 300 μmol/L [5]: < 1 ×10⁻⁶ cm/s
3 | – | – | – | – | Oc1cc(O)c2c(c1)O[C@H](c1cc(O)c(O)c(O)c1)[C@H](O)C2 [EGC, (−)-epigallocatechin] | 35.67 | increase the cellular accumulation | 0.246 ± 0.01 | 0.674 ± 0.062 | 2.74 | 103.58 | – | Bioavailability ([6]; rat, in vivo, po): 13.7%
4 | – | – | – | – | O=C(O[C@@H]1Cc2c(O)cc(O)cc2O[C@H]1c1ccc(O)c(O)c1)c1cc(O)c(O)c(O)c1 [CG, (−)-catechin gallate] | 132.00 | – | 0.139 ± 0.012 | 0.651 ± 0.042 | 4.68 | 123.09 | upregulation | Papp at 300 μmol/L (in vitro): < 1 ×10⁻⁶ cm/s
5 | 0.152 ± 0.017 | 1.69 ± 0.163 | 11.2 | 1.06 | Oc1cc(O)c2c(c1)O[C@H](c1ccc(O)c(O)c1)[C@H](O)C2 [EC, (−)-epicatechin] | 60.00 | – | – | – | – | 41.67 | upregulation | Bioavailability [6, 11]: 31%; Plasma concentration following oral administration ([3]; 250 mg/kg): 53 µM
6 | – | – | – | – | Oc1cc(O)c2c(c1)O[C@@H](c1cc(O)c(O)c(O)c1)[C@H](O)C2 [GC, (+)-gallocatechin] | 37.67 | – | 0.264 ± 0.021 | 0.875 ± 0.028 | 3.32 | 119.33 | – | Papp at 300 μmol/L (in vitro): < 1 ×10⁻⁶ cm/s
7 | 0.093 ± 0.008 | 0.257 ± 0.01 | 2.75 | 1.05 | O=C(O[C@@H]1Cc2c(O)cc(O)cc2O[C@@H]1c1cc(O)c(O)c(O)c1)c1cc(O)c(O)c(O)c1 [EGCG, (−)-epigallocatechin gallate] | 42.67 | increase the cellular accumulation | – | – | – | 89.57 | upregulation | Bioavailability [6, 11]: 0.1%; Plasma concentration following oral administration ([3]; 2500 mg/kg): 244.3 µM; mRNA transcription and protein level of BCRP (BCRP [7]): not changed; Protein level of MRP2 on the hepatocyte canalicular membrane (MRP2 [8]): significantly decreased
8 | – | – | – | – | CN(C)C(=O)CCSC(SCCC(=O)O)c1cccc(/C=C/c2ccc3ccc(Cl)cc3n2)c1 (stereo not shown) [MK-571, MK-571 sodium salt hydrate, reference compound] | – | – | – | – | – | – | – | Effect of MK-571 on the efflux of eight catechins (Caco-2 cell monolayers): significantly inhibit
9 | 0.156 ± 0.011 | – | 16.7 | 1.34 | Oc1cc(O)c2c(c1)O[C@H](c1ccc(O)c(O)c1)[C@@H](O)C2 [C, (+)-catechin] | 58.33 | – | – | – | – | 14.05 | – | Papp at 300 μmol/L [5]: < 1 ×10⁻⁶ cm/s
